Measurements from patent publication US6670339B1, “Use of sulfated oligosaccharides in lowering blood triglyceride levels” (The Australian National University, priority 1997, dated 2003).

Assays:
[1] = system: blood triglyceride levels; assay: Blood triglyceride levels in mice under continuous infusion by mini-osmotic pump; type: in vivo, CBA/h female mice
Method: Thus, 10 CBA/h female mice 8-10 weeks old were weighed and divided into two groups of 5 mice each based on weight. Mice in the control group were implanted subcutaneously with a mini-osmotic pump (Alzet 2001) containing sterile normal saline solution. Mice in the treatment group were implanted subcutaneously with a mini-osmotic pump containing the sulfated mannopentaose phosphate which delivered the sulfated mannopentaose phosphate at a dose of 50 mg/kg/day. At the end of the 7 day period over which the mini-osmotic pumps delivered their payload, blood (50 μl) was collected from the tail veins of mice from both groups and assayed for triglycerides (Sigma, Triglyceride—GPO-Trinder). Triglyceride levels in the blood from mice in the control group averaged 1.49±0.23 mM and triglyceride levels in the blood of mice in the treatment group averaged 1.01±0.07 mM. One week following the treatment period, blood triglyceride levels were measured again in each group and levels in the treatment group had returned to normal, or those approximating the control group. Thus, at this point levels of triglycerides in the blood of mice in the control group averaged 1.29±0.08 mM and levels of triglycerides in the blood of mice in the treatment group averaged 1.27±0.06 mM.

[2] = system: blood triglyceride levels; assay: Blood triglyceride levels in male and female Lewis rats after 7 days of twice daily s.c. injection; type: in vivo
Method: 2. […] Thus, on day 0 the rats were weighed and placed into three groups of the same sex, containing three rats each based on weight. On every subsequent morning their weights were recorded. Each morning beginning on day 1 at approximately 8.00 AM and each evening at approximately 8.00 PM the rats were injected in the following manner. The control groups received sterile normal saline solution 100 μl s.c. The first treatment groups of male and female rats received the sulfated mannopentaose phosphate, at a dose of 10 mg/kg s.c. in 100 μl of sterile saline solution (total daily dose 20 mg/kg). The second treatment groups of male and female rats received the sulfated mannopentaose phosphate at a dose of 50 mg/kg s.c. (total daily dose 100 mg/kg). This injection routine was repeated for a total of 7 days.
On morning of day 8 of the experiment, the rats were anaesthetised and blood was taken for triglyceride analysis. Triglyceride levels were determined using a commercially available assay kit (Sigma, Triglyceride—GPO-Tinder). […] Thus, blood triglyceride levels in the male control group averaged 1.7±0.21 mmol/L, in the […] male treatment group averaged 0.9±0.2 mmol/L and in the 100 mg/kg/day male treatment group averaged 0.3±0.0 mmol/L. Blood triglyceride levels in the female control group averaged 1.13±0.19 mmol/L, and in the 20 mg/kg/day female treatment group averaged 0.5±0.0 mmol/L and in the 100 mg/kg/day female treatment group averaged 0.17±0.03 mmol/L.

[3] = system: serum triglyceride levels; assay: Serum triglyceride lowering by glycosaminoglycans and sulfated oligosaccharides in mice; type: in vivo, CBA/h female mice; details: 50 mg/kg s.c., 2 hours after injection
Method: FIG. 3. Ability of different glycosaminoglycans and sulfated oligosaccharides to lower serum triglyceride levels in CBA mice. Compounds were injected s.c. at a dose of 50 mg/kg, blood samples taken 2 hours later and assayed for triglyceride content. Each histogram is the mean±SEM (n=3) for each treatment.
Mice (CBA/h female mice 8-10 weeks old) were injected s.c. with a range of glycosaminoglycans and sulfated oligosaccharides at a dose of 50 mg/kg and 2 hours later mice were anaesthetised, blood was collected via cardiac puncture and allowed to clot and serum triglyceride levels measured using a commercially available kit (Sigma, Triglyceride—GPO-Trinder). […] The only other compound with some activity was suramin, a sulfonated compound which has previously been used as an angiogenesis and heparanase inhibitor.

[4] = target: T1, bovine milk lipoprotein lipase (Bos taurus, UniProt P11151); assay: Inhibition of binding of biotinylated heparin/heparan sulfate to immobilised lipoprotein lipase
T1 construct: purified from bovine milk as previously described; from tissue; host or cells: bovine milk
T1 sequence (P11151 29-478): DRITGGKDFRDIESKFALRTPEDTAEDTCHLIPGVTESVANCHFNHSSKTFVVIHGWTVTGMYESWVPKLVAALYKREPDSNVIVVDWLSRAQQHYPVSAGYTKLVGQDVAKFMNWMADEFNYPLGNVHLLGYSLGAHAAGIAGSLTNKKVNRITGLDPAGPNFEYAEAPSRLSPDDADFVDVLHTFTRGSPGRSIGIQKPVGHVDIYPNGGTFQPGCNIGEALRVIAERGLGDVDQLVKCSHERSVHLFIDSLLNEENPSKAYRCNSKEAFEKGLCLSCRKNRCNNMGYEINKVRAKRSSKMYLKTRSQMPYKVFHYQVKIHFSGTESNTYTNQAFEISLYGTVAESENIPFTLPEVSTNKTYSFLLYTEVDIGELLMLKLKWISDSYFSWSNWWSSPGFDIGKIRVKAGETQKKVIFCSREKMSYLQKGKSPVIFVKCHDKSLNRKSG
Method: As a more rapid and direct means of measuring the ability of different sulfated oligosaccharides to release lipoprotein lipase from the endothelium, an in vitro assay for this effect was developed. The assay involved immobilising lipoprotein lipase (10 μg/ml in PBS, 15 hr, 4° C.), purified from bovine milk as previously described^12, in 96 well plastic microplates (50 μl/well). Non-specific binding sites were then blocked by the addition of 200 μl/well of PBS containing 1% (w/v) bovine serum albumin (BSA) for 2 hr at 4° C. Following three washes with 200 μl/well of PBS/0.05% Tween 20 (PBST), 50 μl/well of either biotinylated bovine lung heparin or biotinylated porcine mucosal heparan sulfate (Sigma), used at either 1 or 10 μg/ml, was added and incubated for 2 hr at 4° C. Following three washes with PBST, 50 μl/well of europeum-streptavidin (1 ng/ml in PBS/1% BSA) was added for 1 hr at 4° C., the plate again washed three times with PBST, enhancement solution (50 μl/well) added and bound europeum measured by time resolved fluorescence detection using a Delfia Research Fluorometer (Wallac, Turku, Finland). Inhibition assays measured the ability of different sulfated oligosacchandes to inhibit the binding of biotinylated heparan/heparin sulfate to the immobilised lipoprotein lipase enzyme.

[5] = system: blood triglyceride levels; assay: Blood triglyceride levels in mice after alternate daily s.c. injection; type: in vivo, CBA/h female mice; details: 50 mg/kg s.c. on alternate days, 4 injections, 24 hours after last injection; control 1.11±0.1
Method: Thus, 10 CBA/h female mice 8-10 weeks old were weighed and divided into two groups of 5 mice each based on weight. Mice in the control group were injected with sterile normal saline solution 100 μl s.c. on alternate days for a total of 4 injections. Mice in the treatment group were injected with the sulfated mannopentaose phosphate at a dose of 50 mg/kg s.c. on alternate days for a total of 4 injections. Twenty-four hours following the last injection, blood (50 μl) was collected from the tail veins of each animal and assayed for triglyceride levels (Sigma, Triglyceride—GPO-Trinder). Blood triglyceride levels in the control group averaged 1.11±0.1 mM and blood triglyceride levels in the treatment group averaged 0.64±0.04 mM.

**Q.** “sulfated mannopentaose phosphate [PI-88 (15 SO4/molecule)]” was tested. Which “triglyceride levels in the blood” value ([1]; 50 mg/kg/day by s.c. mini-osmotic pump, end of 7 day period, control 1.49±0.23) did it give?
**A.** 1.01 ± 0.07 mM

**Q.** And the “triglyceride levels in the blood” value ([1]; one week following the 7 day infusion of 50 mg/kg/day, control 1.29±0.08)?
**A.** 1.27 ± 0.06 mM

**Q.** And the blood triglyceride levels ([2]; female Lewis rats, 20 mg/kg/day s.c., blood on day 8, control 1.13±0.19)?
**A.** 0.5 ± 0.0 mmol/L

**Q.** What about the blood triglyceride levels ([2]; female Lewis rats, 100 mg/kg/day s.c., blood on day 8, control 1.13±0.19) of the same substance?
**A.** 0.17 ± 0.03 mmol/L

**Q.** And the blood triglyceride levels ([2]; male Lewis rats, 100 mg/kg/day s.c., blood on day 8, control 1.7±0.21)?
**A.** 0.3 ± 0.0 mmol/L

**Q.** What about the blood triglyceride levels ([2]; male Lewis rats, 'mg/kg/day' group (lower dose), s.c. twice daily, blood on day 8, control 1.7±0.21) of the same substance?
**A.** 0.9 ± 0.2 mmol/L

**Q.** What about the “effect on serum triglyceride levels, in words” value [3] of the same substance?
**A.** lowered serum triglyceride levels

**Q.** What about the “IC50, inhibition of binding of Biotinylated Heparin (1 μg/ml) to lipoprotein lipase” value ([4]; biotinylated bovine lung heparin 1 μg/ml) of the same substance?
**A.** 1 µg/mL

**Q.** And the “IC50, inhibition of binding of Biotinylated Heparin (10 μg/ml) to lipoprotein lipase” value ([4]; biotinylated bovine lung heparin 10 μg/ml)?
**A.** 3 µg/mL

**Q.** And the “IC50, inhibition of binding of Biotinylated Heparan Sulfate (10 μg/ml) to lipoprotein lipase” value ([4]; biotinylated porcine mucosal heparan sulfate 10 μg/ml)?
**A.** 0.1 µg/mL

**Q.** And the “inhibitory activity on lipoprotein lipase binding to heparin/heparan sulfate, in words” value ([4]; summary of Table 1)?
**A.** potent inhibitors

**Q.** And the blood triglyceride levels [5]?
**A.** 0.64 ± 0.04 mM
